For one data set, the system named is Liver microsome. Put plainly: Inhibition of lipid peroxidation in rat liver microsomes. The data set is classed as functional.
Data set [1] deals with T1, Tyrosinase (Mus musculus) (UniProt P11344).
T1 sequence (whole entry): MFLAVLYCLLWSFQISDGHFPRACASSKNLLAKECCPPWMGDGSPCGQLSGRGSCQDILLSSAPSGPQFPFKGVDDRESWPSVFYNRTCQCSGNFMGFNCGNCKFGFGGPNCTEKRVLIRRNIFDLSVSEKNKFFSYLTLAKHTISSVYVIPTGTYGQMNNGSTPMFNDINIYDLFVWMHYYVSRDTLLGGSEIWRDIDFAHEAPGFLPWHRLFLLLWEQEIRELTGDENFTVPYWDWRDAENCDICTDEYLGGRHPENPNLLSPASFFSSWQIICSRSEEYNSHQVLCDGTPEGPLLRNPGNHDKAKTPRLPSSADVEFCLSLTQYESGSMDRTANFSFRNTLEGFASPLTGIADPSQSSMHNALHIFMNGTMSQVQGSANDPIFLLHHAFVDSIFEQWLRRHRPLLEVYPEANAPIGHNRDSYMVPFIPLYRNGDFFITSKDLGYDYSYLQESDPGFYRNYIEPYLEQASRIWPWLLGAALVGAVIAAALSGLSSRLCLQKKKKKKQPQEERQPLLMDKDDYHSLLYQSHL
In words: Inhibition of tyrosinase in mouse B16 cells using L-tyrosine as substrate preincubated at 50 uM for 20 mins by spectrophotometry relative to control. The data set is classed as cell-based.

Data set [2] relates to B16. In words: Cytotoxicity against mouse B16 cells at 1 uM after 72 hrs by MTT assay. Format: cell-based. Particulars: b16, 72 h.
Data set [3] relates to B16. In words: Inhibition of alpha-MSH-induced melanin production in mouse B16 cells at 1 uM after 3 days by spectrophotometry relative to control. The conditions noted are these: B16, 72 h. The data set is classed as functional.
For data set [4], the system named is B16. Put plainly: Inhibition of alpha-MSH-induced melanin production in mouse B16 cells at 0.1 to 0.4 uM after 3 days by spectrophotometry relative to control. The data set is classed as functional, cell-based.
Data set [5] has as its system B16. In words: Inhibition of alpha-MSH-induced TRP-1 protein expression in mouse B16 cells after 3 days by Western blotting relative to control. The data set is classed as functional, cell-based. Background: A western blot detects proteins with antibodies after separation by electrophoresis.
The subject of data set [6] is B16. In words: Inhibition of alpha-MSH-induced MITF protein expression in mouse B16 cells after 3 days by Western blotting relative to control. The data set is classed as functional, cell-based.
In data set [7] the test system is B16. In words: Inhibition of alpha-MSH-induced tyrosinase protein expression in mouse B16 cells at 0.1 to 1 uM after 3 days by Western blotting relative to control. Format: functional, cell-based.
Data set [8] concerns B16. In words: Inhibition of alpha-MSH-induced TRP-2 protein expression in mouse B16 cells at 0.1 to 1 uM after 3 days by Western blotting relative to control. Format: functional, cell-based.
In data set [9] the test system is B16. In words: Inhibition of alpha-MSH-induced TRP-1 mRNA expression in mouse B16 cells at 1 uM after 3 days by RT-PCR analysis relative to control. Format: functional. Particulars: B16, 72 h.
Data set [10] relates to B16. Put plainly: Inhibition of alpha-MSH-induced MITF mRNA expression in mouse B16 cells at 1 uM after 3 days by RT-PCR analysis relative to control. The data set is classed as functional. The conditions noted are these: B16, 72 h.
The test system of data set [11] is B16. Put plainly: Inhibition of alpha-MSH-induced tyrosinase mRNA expression in mouse B16 cells at 0.1 to 1 uM after 3 days by RT-PCR analysis relative to control. The data set is classed as functional, cell-based.
For data set [12], the system named is B16. Put plainly: Inhibition of alpha-MSH-induced TRP-2 mRNA expression in mouse B16 cells at 0.1 to 1 uM after 3 days by RT-PCR analysis relative to control. Format: functional, cell-based.
Data set [13] relates to B16. In words: Inhibition of alpha-MSH-induced ERK phosphorylation in mouse B16 cells at 0.1 uM after 3 days by Western blotting relative to control. The data set is classed as cell-based.
Data set [14] has as its system B16. In words: Inhibition of alpha-MSH-induced ERK phosphorylation in mouse B16 cells at 0.4 uM after 3 days by Western blotting relative to control. The data set is classed as cell-based.
The test system of data set [15] is B16. Put plainly: Inhibition of alpha-MSH-induced ERK phosphorylation in mouse B16 cells at 1 uM after 3 days by Western blotting relative to control. Format: cell-based.
The test system of data set [16] is B16. Put plainly: Inhibition of alpha-MSH-induced AKT phosphorylation in mouse B16 cells at 0.1 to 1 uM after 3 days by Western blotting relative to control. The data set is classed as cell-based.

Structures are written as SMILES. Calls of active or inactive are those of the source. No cut-off for these calls is given here.

Broadly, the IC50 is the concentration that gives 50% inhibition. The low end stands for greater potency in that assay, the high end for weaker potency in that assay. As usually defined, the inhibition is the percentage by which the read-out fell short of the control.

As to `CC1=C(/C=C/C(C)=C/C=C/C(C)=C/C(=O)Nc2ccc(O)cc2)C(C)(C)CCC1` [FENRETINIDE], in the data set with Liver microsome, 5000 nM corresponded to half-maximal inhibition (IC50).
On the same count and under the same terms, in the case of `CCCCCCNc1ccc(O)cc1` it was 33 nM.
Take `CCCCCCCCCCNc1ccc(O)cc1`: the inhibition in data set [1] was 7%; in the data set with B16 [5] it was “Dose-dependent effect”; in the data set on B16 [6], “Dose-dependent effect”; in the data set on B16 [13], 22%; in the data set on B16 [14] it was 75%; in the data set with B16 [15], 88%. Besides, the Activity entry with B16 [2] was “Non-toxic”. Moreover, the inhibition at 1 µM came to 34% in the data set with B16 [3], 50% in the data set on B16 [9] and 68% in the data set on B16 [10]. In addition, the inhibition result in the data set with B16 [4], with B16 [7], with B16 [8], in the data set on B16 [11], in the data set on B16 [12] and in the data set on B16 [16] was “inactive” throughout. This molecule also displayed a concentration for half-maximal inhibition (IC50) in the data set with Liver microsome of 15 nM.
The molecule `CC1=C(/C=C/C(C)=C/C=C/C(C)=C/C(=O)O)C(C)(C)CCC1` [TRETINOIN] yielded a half-inhibitory concentration (IC50) with Liver microsome of 3200 nM.
As to `CCCCCCCCNc1ccc(O)cc1`, the IC50 with Liver microsome was 14 nM.
Same read-out and setting: in the case of `CCCCCCCCCCCCNc1ccc(O)cc1` it was 15.5 nM.
